Experimental findings from a melting point compilation (Tetko et al.; mined from patent text by program, amines drawn as free bases though some values may be those of a salt) are described below.

Molecule `O=S(=O)(NCC1CCN(C[C@H]2COc3ccc(Br)cc3O2)CC1)c1cccc(Cl)c1Cl` displayed a melting point of 93 to 95 °C.
Consider `COc1cc2c(cc1F)C(=O)C(=O)N2`, for which the melting point stood at 260 °C.
As for `CCCNC(=O)C1(C/C=C\CSc2nc3ccc(OCC)cc3s2)c2ccccc2-c2ccccc21`, the figure is 135 to 137 °C.
As for `O=C(NC1N=C(c2ccccc2)c2ccccc2NC1=O)c1c[nH]c2ccccc12` (racemic), the figure is 265 to 268 °C.
As for `O=C1Nc2cc(F)c(F)cc2N2CCNCC12` (stereo unspecified), the figure is 226 to 228 °C; as for `COCc1cc2c(C(=O)Nc3ccnn3C)ccc(OC)c2o1`, 148 to 150 °C; as for `NC(Cc1nc2cc(Cl)ccc2nc1CP(=O)(O)O)C(=O)O` (stereo unspecified), 181 to 192 °C.
`Cc1cccc(Cl)c1N1CCCN(C)C1=S` returned a melting point of 164 to 165 °C.
As for `Cc1cccc(C)c1N(CCCc1cccnc1)C(=O)Cn1ccnc1C`, the figure is 89 to 90 °C; as for `CN(SCl)C(=O)Nc1ccc(Cl)c(Cl)c1`, 142 to 145 °C; as for `Cc1nc(N2CCN(CCc3ccccc3)C2=O)sc1C(=O)NCc1ccccc1`, 156 to 157 °C.
As for `O=C(O)CCC(=NOCc1ccc(OCc2cn3ccccc3n2)cc1)c1ccccc1`, the figure is 180 to 182 °C.
As for `C=CCOCC(CC)(COCC=C)C(NC(=O)c1ccc(Cl)cc1)NC(=N[N+](=O)[O-])Nc1cccnc1` (stereo unspecified), the figure is 175 to 180 °C; as for `CC(=O)CCCCc1ccc(-c2ccccc2F)cc1`, 37 to 38 °C; as for `CCOC(=O)C(=CNc1cc(C)nn1CC)C(=O)OCC`, 60 to 67 °C.
`O=C1CC(c2ccc(Cl)cc2)CO1` (stereo unspecified) registered a melting point of 52 to 54 °C.
The molecule `O=[N+]([O-])C1=C2N(Cc3cnc(Cl)s3)CCN2C2CCC1O2` (stereo unspecified) returned a melting point of 152 °C.
As for `CCOc1nn(CCOc2ccc3ccccc3c2CC(=O)O)cc1C(=O)NCc1ccc(Cl)cc1Cl`, the figure is 199 to 201 °C; as for `CCOC(=O)c1[nH]cnc1CC`, 170 to 172 °C; as for `O=[N+]([O-])C1=Cc2cc3c(cc2OC1)OCO3`, 139 °C.
As for `CC(=O)NC(C)Cc1ccccc1` (stereo unspecified), the figure is 91 to 93 °C.
`Cc1noc(C)c1C(=O)Nc1ccc(-n2nc(C(F)(F)F)cc2C(F)(F)F)cc1` registered a melting point of 179 to 180 °C.
As for `Cc1cc2c(cc1Cl)NC(NC(C)C)=NS2(=O)=O`, the figure is 120 to 122 °C; as for `NC(=O)c1n[nH]c2ccccc12`, 284 to 286 °C; as for `C=C(C(=O)c1ccc(-n2ccnc2)nc1)c1ccc(F)cc1F`, 115 to 116 °C.
As for `CCC(=O)c1ccc(OCCOC)cc1`, the figure is 31 to 35 °C; as for `CS(=O)(=O)c1ccc(C(=O)CC(=O)C2CC2)c(Cl)c1-c1nccs1`, 146 to 147 °C; as for `COc1cc(OC)nc(Oc2cccc(F)c2)n1`, 45 °C.
On to `COc1cc2[nH]c(N3CCCN(C(=O)N4CCOCC4)CC3)nc(=O)c2c(C)c1OC`, for which the melting point was in the range of 237 to 238 °C.
As for `O=c1cc(C(F)(F)F)[nH]c(=O)n1-c1ccc(F)c(F)c1F`, the figure is 137 to 138 °C; as for `Cc1ccc(Oc2ccc(NC(=O)Nc3cc(C(C)(C)C)n[nH]3)cc2)cc1`, 204 °C; as for `CCOC(=O)[C@@H]1C[C@H](OS(=O)(=O)c2ccc(C)cc2)CN1C(=O)OCc1ccccc1`, 91 to 92 °C.
As for `O=C(O)CCCC(=O)ON1C(=O)CCC1=O`, the figure is 81 to 83 °C; as for `c1ccc(-c2cccn3cnnc23)nc1`, 212 to 214 °C.
Consider `COC(=O)c1ccc(N2C(=O)CCC2(CO)CCO)c([N+](=O)[O-])c1` (stereo unspecified), for which the melting point lay within 151 to 153 °C.
As for `COc1ccc(COc2cccnc2NC(=S)Nc2ccccc2)cc1`, the figure is 123 to 125 °C; as for `CC(C)c1cccc(C(C)C)c1NC(=O)CCN1CCN(CCCSc2nc3ccccc3o2)CC1`, 93 to 95 °C; as for `CCCCc1nc(Cl)c(C(=O)OCC)n1Cc1ccc2oc(-c3ccccc3NS(=O)(=O)C(F)(F)F)c(Br)c2c1`, 158 to 159 °C.
As for `CCSc1cn(C)cc(-c2cc(C(F)(F)F)ccc2Cl)c1=O`, the figure is 127 to 129 °C; as for `Cc1cc(C)cc(C=CC#N)c1`, 67 to 68 °C.
As for `CCSc1nc2c(C)ccnc2n1Cc1ccc(C2(Br)CC(C#N)=CN2C)cc1` (stereo unspecified), the figure is 161 to 163 °C.
In turn, `COc1cc2[nH]c(=O)c(=O)n(C)c2cc1[N+](=O)[O-]` showed a melting point of 356 °C.
As for `NCCN1C(=O)CN(c2ccc(Cl)cc2)C1=O`, the figure is 142 to 145 °C.
As for `O=c1cc2c(n[nH]1)-c1ccccc1CC2`, the figure is 236 °C; as for `O=C(O)CCn1nnnc1-c1ccc2c(c1)S(=O)(=O)c1ccccc1C2=O`, 143 to 145 °C.
Take `CCOC(=O)C1=C(C)N(C)C(C)=C(C(=O)OC)C1c1cc([N+](=O)[O-])ccc1Cl` (stereo unspecified): the melting point was 164 °C.
As for `COC(=O)COc1ccc(NC(=O)CO)cc1`, the figure is 148 to 150 °C; as for `CCOC(=O)C(CO)NC(=O)C(CC(=O)O)NC(=O)CCNC(=O)c1ccc(C(=N)N)cc1` (stereo unspecified), 201 to 203 °C; as for `Cc1nc2cccc3c(=O)n(CCCCNS(=O)(=O)C(F)(F)F)c(=O)c1n23`, 181 to 182 °C.
As for `Cc1cccc(C)c1N(CC(C)OS(C)(=O)=O)S(C)(=O)=O` (stereo unspecified), the figure is 111 to 114 °C; as for `CNC(=O)NCCN1CCC(=C2c3sccc3CCn3ccnc32)CC1`, 159 °C; as for `CN(C)C(=S)Oc1ccc(Br)cc1C=O`, 141 to 143 °C.
For the molecule `COC(=O)c1cc2c(OC[C@@H](O)CN3CCC(c4ccc5ccccc5c4)CC3)cccc2o1`, the melting point was in the range of 118 to 119 °C.
As for `CC(C)[C@H](NC(=O)OCc1ccccc1)C(=O)NC(Cc1ccccc1)C(O)C(Cc1ccccc1)NC(=O)[C@@H](NC(=O)OCc1ccccc1)C(C)C` (stereo partly specified), the figure is 198 to 200 °C; as for `CCn1cc(C(=O)O)c(=O)c2cc(C=NOCC(=O)O)sc21`, 249 to 250 °C; as for `O=C1c2ccc(OC(c3ccccc3)c3ccccc3)cc2OCC1Cc1cccnc1` (stereo unspecified), 45 °C.
As for `CC(=O)OC1CSC(Oc2cncc(-c3ccc(C#N)cc3C)c2)C(OC(C)=O)C1OC(C)=O` (stereo unspecified), the figure is 136 to 138 °C.
As for `O=C1NC(c2ccccc2)CN1CCO` (stereo unspecified), the figure is 60 to 63 °C; as for `O=C(OCCO)c1ccc(C(=O)OCCO)cc1`, 108 to 110 °C; as for `O=c1c2c(n(-c3cccc(Cl)c3)c3ncccc13)CCCC2`, 195 to 198 °C.
In turn, `Cc1ccccc1C1=C(CC(=O)Nc2c(C(C)C)cccc2C(C)C)CN(C)c2ccc(Cl)cc21` gave a melting point of 160 °C.
For `COC(=O)CCC(O)C(=O)OC(C)(C)C` (stereo unspecified), the melting point was 36 to 37 °C.
As for `COc1ccc(S(N)(=O)=O)c(-c2cccc3c2Nc2ccc(F)cc2S3)c1`, the figure is 166 to 168 °C; as for `COc1ccc(Cl)c2c1[nH]c1c(C(=O)O)cccc12`, 328 °C; as for `COc1cc2sc(C#N)cc2c(Cl)c1OC`, 159 to 160 °C.
As for `O=[N+]([O-])c1cc2c(cc1O)CCCC2`, the figure is 88 to 89 °C; as for `O=C(NCc1ccc(Cl)c(C(F)(F)F)c1)Nc1cccc2[nH]ccc12`, 197 °C.
On to `CC1(C)SC(=O)NC1C(=O)NCCO[N+](=O)[O-]` (stereo unspecified), for which the melting point was in the range of 98 to 100 °C.
As for `Cc1oc(-c2ccccc2)nc1CCOc1ccc(CC(C)(C(=O)O)c2ccccc2)cc1` (stereo unspecified), the figure is 178 to 179 °C.
As for `CCNC(=O)CC1CCN(Cc2cnc3cc(NC(=O)c4ccc(-c5ccc(Cl)cc5)cc4)ccc3c2)CC1`, the figure is 250 °C; as for `Cc1cc(CCCCCOc2ccc(C3=NCCO3)cc2C=CBr)on1`, 94 to 96 °C; as for `N#CSc1cc([N+](=O)[O-])ccc1Cl`, 103 °C.
As for `CCS(=O)(=O)C1=NCN(S(=O)(=O)CC)S1`, the figure is 42 °C; as for `CCCOc1ccccc1-c1ncc(C(=O)OCC)c(=O)[nH]1`, 106 to 107 °C.
For the molecule `CCOC(=O)N1CCc2[nH]c(=O)n3nc(-c4ccccc4F)nc3c2C1`, the melting point fell in the range of 307 to 311 °C.
As for `COC(=O)Nc1nc2cc(C(c3ccc(F)cc3)n3ccnc3C)ccc2[nH]1` (stereo unspecified), the figure is above 300 °C; as for `ICCOc1ccc(C2=C(c3ccccc3)CCCc3cc(OC4CCCCO4)ccc32)cc1` (stereo unspecified), 165 to 166 °C.
As for `COc1cccc(CN2CCC3(CCc4c3n(C)c3ccccc43)CC2)c1`, the figure is 100 to 101 °C; as for `O=S1(=O)c2cccc3cccc(c23)N1CCCCN1CCN(c2nsc3ccccc23)CC1`, 123 °C.
`N#Cc1ccccc1NC(=O)Nc1ccc(S(N)(=O)=O)cc1` displayed a melting point of 256 to 258 °C.
As for `CCc1nc2c(cnn2CC)c(NC2CCOCC2)c1CNC(=O)c1cccc(C(=O)NCc2ccc(OC)c(-c3cccc(CN4CCNC(C)C4)c3)c2)c1` (stereo unspecified), the figure is 110 to 112 °C; as for `CCCn1nc(-c2cc(C(C)(C)C)c(O)c(C(C)(C)C)c2)c2cccnc21`, 97 to 98 °C.
As for `CCOC(=O)C(=O)N1CCC(Cc2ccc(F)cc2)CC1`, the figure is 72 to 74 °C; as for `Cc1cccc(-c2n[nH]cc2-c2ccc(F)c(-c3ccc(S(N)(=O)=O)cc3)c2)n1`, 115 to 118 °C; as for `O=C(OC1CCN(c2ccc3[nH]c(=O)ccc3c2)CC1)c1ccccc1`, 212 to 215 °C.
As for `Cc1c(OCC2CO2)noc1-c1ccccc1` (stereo unspecified), the figure is 87 to 88 °C; as for `CS(=O)(=O)Nc1cccc(Nc2nc(NCc3cccc(O)c3)c3nc[nH]c3n2)c1`, 221 to 225 °C.
For the molecule `COC(=O)C(Cc1ccc(OCCN(C)c2nc3ccccc3o2)cc1)Sc1ccccc1` (stereo unspecified), the melting point is 78 to 79 °C.
In turn, `CC(C)S(=O)(=O)Nc1cccc2c3c([nH]c12)C(=O)CCC3` showed a melting point of 267 to 268 °C.
As for `O=CNCc1cc(C(O)CNCCCCCCOCCCCc2ccccc2)ccc1O` (stereo unspecified), the figure is 76 to 77 °C; as for `CCOC(=O)c1cnc2cc(NC(C)=O)ccc2c1O`, 295 to 300 °C.

As a reminder, the melting point is the temperature, or range, at which the solid turns liquid.
